According to patent publication US12023421B2, “Medical devices for continuous delivery of therapeutic agents” (Adenopaint LLC, priority 2019, dated 2024):
Converted amounts (≈) assume the structure as drawn.

Legend:
[1] = test system: Yucatan mini-pigs; assay: Acetylcholine-induced coronary vasoconstriction (no-reflow) in the pig (Example 6, second protocol); format: in vivo; conditions: 0.3 to 1.0 mg/min infused into the LAD for 20 to 30 min; preliminary studies
Protocol: Animal Studies: All porcine studies were approved by Institutional Animal Care and the Committee of Synchrony Labs LLC, NC. Yucatan mini pigs (25 to 30 Kg) were premeditated with Telazol (5 mg/Kg). Anesthesia was maintained with 1% isoflurane and supplemental oxygen to maintain a pH of 7.4±0.6. Animals received aspirin 300 mg orally for three days prior to the study and were anticoagulated throughout the procedure with heparin (150 units/kg) to maintain ACT greater than 300. Heart rate, EKG changes and blood pressure were monitored continuously utilizing leads I, AVF and AVL with a 6 F sheath in the left femoral artery. […] Coronary blood flow velocity (CFV) was measured utilizing a 0.014-inch Doppler flowwire (Combowire, Volcano Corporation, Rancho Cordova, CA, USA) and dedicated software. CFV was measured as a continuous average pulse wave velocity over 4 seconds and mean values were recorded every 60 seconds.
In the second protocol the ability of the wire to prevent and reverse intense vasoconstriction induced by intracoronary administration of acetylcholine (Ach) was evaluated. […] In other experiments, we evaluated whether an adenosine-releasing wire could prevent the NRF by placing the adenosine-loaded wire initially into the LAD. […]
For statistical analyses, data are expressed as mean±SEM. […]

[2] = In vitro drug elution from coated guidewires in phosphate-buffered saline at 37° C. (UV 260 nm); format: physicochemical
Protocol: FIG. 4 illustrates representative time release of a therapeutic agent, adenosine, from the distal 10 cm of three guidewires with two coats of PVA/PVP polymer cured with 2 freeze/thaw cycles. The inner therapeutic coat was a 7.5% (w/w) of PVA/PVP with 1.5 mg of adenosine added as described in the application. The outer barrier layer was made of 10.0% (w/w) of PVA/PVP. The guidewire was placed in a beaker containing phosphate-buffered saline at 37° C. that was constantly stirred with a magnetic device. Samples were taken periodically from the beaker and analyzed for adenosine amount by UV spectrophotometry (absorption at 260 nm). Note the complete elution of the drug in a curvilinear fashion over 60 minutes.
Note that elution was more rapid with greater than 90% eluted over 20 minutes.
FIG. 6 illustrates a representative example of an extremely rapid elution of another drug diltiazem utilizing a polymer with a ratio of PVA/PVAC and two freeze/thaw cycles. The drug was completely eluted over 10 minutes.
Utilizing the same protocol as Example 1, the freeze/thaw cycles were increased to 3-8 and the barrier concentration was increased to 15.0% (w/w). Utilizing adenosine as the prototype therapeutic agent the elution profile was increased with the majority of drug elution occurring in 30 min.

[3] = In vitro release studies in 0.9% saline at 37° C. (Example 6); format: physicochemical
Protocol: In vitro release studies were performed in 0.9% saline rather than in plasma or blood because adenosine has a short half-life (seconds) in the latter two media making detection difficult. Tubes containing 15 ml saline were maintained at 37° C. and 10 cm of the spaced coiled section of the guidewire was placed serially in tubes for 0 to 5, 5 to 10, 10 to 20, 20 to 30, 30 to 40, 40 to 50, and 50 to 60 minutes. One ml samples were then taken from the tube to measure the concentration of adenosine by spectrophotometry (Jackson E K, Mi Z, Koehler M T, Carcillo J A Jr, Herzer W A. Injured erythrocytes release adenosine deaminase into the circulation. J Pharmacol Exp Ther 1996; 279: 1250-60).

[4] = Particle size stability of jet-milled adenosine in hydrogel (laser diffraction and optical microscopy); format: physicochemical; conditions: after one week in the hydrogel; particles less than 5 microns
Protocol: Next, the inner drug layer was prepared. In this regard, a 20% w/w solution of PVA/PVP (99:1 mass ratio) in DI water was prepared and autoclaved for 1 hr while stirring. This yielded a supersaturated solution which was homogeneous and free of bubbles. Using a water bath, the temperature of the PVA/PVP solution was maintained at 65° C. In order to create a sufficient drug load on the wire, a 25% concentration of adenosine was used in the drug layer. Adenosine has poor solubility in water ([…]) and commercial adenosine has a mean particle size of 55 microns which would have compromised the lubricity of the wire. Utilizing a two-pass jet-milling process, the solid phase adenosine particles were reduced in size to less than 5 microns. Micronized adenosine was mixed in DI water, sonicated for 15 min and then added to the PVA/PVP mixture and the PVA/PVP/adenosine mixture was stirred until a homogeneous solution was obtained. […] Next, the guidewire coated with the PEG-silanol primer was coated with the adenosine-containing hydrogel. Multiple hydroxyl groups in the hydrogel form hydrogen bonds with multiple ether oxygens in the primer, thus creating an extensive network of hydrogen bonds between the drug-containing hydrogel layer and the primer layer (FIG. 14, Reaction 4).

[5] = test system: coronary flow velocity; conditions: continuous infusion into the LAD at 50 μg/kg/min; previous studies; cited from earlier work
[6] = cited from earlier work
[7] = in plasma or blood; cited from earlier work

CC(=O)OCC[N+](C)(C)C [Ach, acetylcholine]
reduction in CBFV [1]: ~80%

Nc1ncnc2c1ncn2[C@@H]1O[C@H](CO)[C@@H](O)[C@H]1O [adenosine, Adenosine]
time in which the majority of drug elution occurred ([2]; Example 2, protocol of Example 1 with 3-8 freeze/thaw cycles and barrier concentration 15.0% (w/w)): 30 min
time of complete elution of the drug from guidewire ([2]; FIG. 4, distal 10 cm of guidewires, inner coat 7.5% (w/w) PVA/PVP with 1.5 mg adenosine, outer barrier 10.0% (w/w) PVA/PVP, 2 freeze/thaw cycles, curvilinear): 60 min
drug eluted over 20 minutes ([2]; FIG. 5, 8 freeze/thaw cycles, polymer 10% inner and 15% outer layer): greater than 90%
release profile ([2]; FIG. 7, guidewires coated with polymer mixture of 3:1 and 1:1 ratios of PVAC to PVA): optimal for a typical coronary interventional procedure
time by which most of the remainder was released ([3]; Example 6 guidewires): ≤ 40 min
total amount of released adenosine ([3]; Example 6 guidewires (PVA/PVP drug layer, PVA/PVAc 1:3 barrier), over 60 min): 2.7±0.2 mg/10 cm length of wire
adenosine released in the first 20 min ([3]; Example 6 guidewires, relative to 60-min timepoint): approximately 60%
particle size stability in the hydrogel [4]: stable
increase in CFV [5]: approximately 250%
solubility in water [6]: 80 mg/mL (≈ 299 mM)
half-life [7]: seconds

COc1ccc([C@@H]2Sc3ccccc3N(CCN(C)C)C(=O)[C@@H]2OC(C)=O)cc1 [diltiazem]
time of complete elution of the drug from guidewire ([2]; FIG. 6, polymer with a ratio of PVA/PVAC, two freeze/thaw cycles): 10 min
